Test results from PubChem BioAssay (NCI).
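Values below derive from 48-hour exposures of cells grown in 96-well plates, with endpoints linearly interpolated between the two concentrations bracketing the appropriate inhibition level. At the TGI there is no net growth.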

Experiments:
Test in all cases: growth of human tumour cells (NCI), 48 h
786-0 renal = system: 786-0 renal
A549 NSCLC = system: A549 NSCLC
CAKI-1 renal = system: CAKI-1 renal
CCRF-CEM leukemia = system: CCRF-CEM leukemia
COLO 205 colon = system: COLO 205 colon
DU-145 prostate = system: DU-145 prostate
EKVX NSCLC = system: EKVX NSCLC
HCC-2998 colon = system: HCC-2998 colon
HCT-15 colon = system: HCT-15 colon
HOP-62 NSCLC = system: HOP-62 NSCLC
HT29 colon = system: HT29 colon
IGROV1 ovarian = system: IGROV1 ovarian
K-562 leukemia = system: K-562 leukemia
KM12 colon = system: KM12 colon
LOX IMVI melanoma = system: LOX IMVI melanoma
M14 melanoma = system: M14 melanoma
MALME-3M melanoma = system: MALME-3M melanoma
MCF7 breast = system: MCF7 breast
MDA-MB-231 breast = system: MDA-MB-231 breast
MDA-N = system: MDA-N
MOLT-4 leukemia = system: MOLT-4 leukemia
NCI-H23 lung = system: NCI-H23 lung
OVCAR-8 ovarian = system: OVCAR-8 ovarian
PC-3 prostate = system: PC-3 prostate
RPMI-8226 leukemia = system: RPMI-8226 leukemia
RXF 393 renal = system: RXF 393 renal
SF-268 CNS = system: SF-268 CNS
SF-295 CNS = system: SF-295 CNS
SK-MEL-28 melanoma = system: SK-MEL-28 melanoma
SK-MEL-5 melanoma = system: SK-MEL-5 melanoma
SK-OV-3 ovarian = system: SK-OV-3 ovarian
SN12C renal = system: SN12C renal
SNB-75 CNS = system: SNB-75 CNS
SR leukemia = system: SR leukemia
SW-620 colon = system: SW-620 colon
T-47D breast = system: T-47D breast
TK-10 renal = system: TK-10 renal
UACC-257 melanoma = system: UACC-257 melanoma
UACC-62 melanoma = system: UACC-62 melanoma

Measured: TGI

Cc1c(CCCl)c(N=P(c2ccccc2)(c2ccccc2)c2ccccc2)n2c(nc3ccccc32)c1C#N
> 10 µM: 786-0 renal | A549 NSCLC | CAKI-1 renal | CCRF-CEM leukemia | COLO 205 colon | DU-145 prostate | EKVX NSCLC | HCC-2998 colon | HCT-15 colon | HOP-62 NSCLC | HT29 colon | IGROV1 ovarian | K-562 leukemia | KM12 colon | LOX IMVI melanoma | M14 melanoma | MALME-3M melanoma | MCF7 breast | MDA-MB-231 breast | MDA-N | MOLT-4 leukemia | NCI-H23 lung | OVCAR-8 ovarian | PC-3 prostate | RPMI-8226 leukemia | RXF 393 renal | SF-268 CNS | SF-295 CNS | SK-MEL-28 melanoma | SK-MEL-5 melanoma | SK-OV-3 ovarian | SN12C renal | SNB-75 CNS | SR leukemia | SW-620 colon | T-47D breast | TK-10 renal | UACC-257 melanoma | UACC-62 melanoma
